According to paper PMC6694155, “PTPσ inhibitors promote hematopoietic stem cell regeneration” (Nature Communications, 2019):
Where “and” joins values, the source holds several entries; their conditions need not be identical. Equal values may be shown once.

Tests used:
[1] = target: T1, CD45 (Protein Tyrosine Phosphatase, receptor type C) (Homo sapiens, UniProt P08575); assay: PhosphataseProfiler screen: CD45; assay type: biochemical; conditions: replicates
T1 construct: purchased Eurofins Pharma Discovery Services UK
Procedure: (§1) Compound DJ001 was evaluated in a PhosphataseProfiler™ screen at 10 μM and 1 μM (2.7 μg/mL and 0.27 μg/mL) concentrations at Eurofins Pharma Discovery Services UK (Study number UK022-0004033) against a panel of 21 Phosphatases. In each experiment, the respective reference antagonist/agonist was tested directly with DJ001 and the data were compared with historical values determined at Eurofins. DJ001 compound inhibition was calculated as percentage inhibition of the enzymatic activity compared with control.

[2] = target: T2, Lambda PP (Lambda Protein Phosphatase) (Escherichia phage lambda, UniProt P03772); assay: PhosphataseProfiler screen: Lambda PP; assay type: biochemical; conditions: replicates
T2 construct: purchased Eurofins Pharma Discovery Services UK
Procedure: as §1

[3] = tested on: PPA (Protein Phosphatase 1); assay: PhosphataseProfiler screen: PPA; assay type: biochemical; conditions: replicates, in % (unit assumed)
Procedure: as §1

[4] = target: T3, PTPMEG1 (Megakaryocyte Protein-Tyrosine Phosphatase 1) (Homo sapiens, UniProt P29074); assay: PhosphataseProfiler screen: PTPMEG1; assay type: biochemical; conditions: replicates
T3 construct: purchased Eurofins Pharma Discovery Services UK
Procedure: as §1

[5] = target: T4, SHP-2 (Protein-Tyrosine Phosphatase 2C) (Homo sapiens, UniProt Q06124); assay: PhosphataseProfiler screen: SHP-2; assay type: biochemical; conditions: replicates
T4 construct: purchased Eurofins Pharma Discovery Services UK
Procedure: as §1

[6] = target: T5, TMDP (Dual Specificity Phosphatase 13) (Homo sapiens, UniProt Q9UII6); assay: PhosphataseProfiler screen: TMDP; assay type: biochemical; conditions: replicates
T5 construct: purchased Eurofins Pharma Discovery Services UK
Procedure: as §1

[7] = target: T6, VHR (Dual Specificity Phosphatase 3) (Homo sapiens, UniProt P51452); assay: PhosphataseProfiler screen: VHR; assay type: biochemical; conditions: replicates
T6 construct: purchased Eurofins Pharma Discovery Services UK
Procedure: as §1

BM CD34−KSL HSCs = assay: 7 day culture of non-irradiated BM CD34−KSL cells in TSF media; assay type: cell-based, mouse; conditions: for Supplementary Figure 3a (center panel): 7 day culture of BM CD34−KSL cells / Supplementary Figure 3a (left panel): 7 day culture of BM CD34−KSL cells / Supplementary Figure 3a (right panel): 7 day culture of BM CD34−KSL cells: replicates
From the text: BM cells were first treated with ACK lysis buffer (Sigma Aldrich) and lineage-committed cells were removed using a Direct Lineage Cell Depletion Kit (Miltenyi Biotec, #130-110-470, 1:5). Lin^− cells were stained with APC-Cy7-conjugated anti-mouse Sca1 (BD Biosciences, #560654, 1:100), PE-conjugated anti-ckit (BD Biosciences, #553355, 1:100), V450 lineage cocktail (BD Biosciences, #561301, 1:10), and FITC-conjugated anti-CD34 (BD Biosciences, #553733, 1:100) antibodies. Sterile cell sorting was conducted on a BD FACS-Aria cytometer. Purified KSL cells and CD34^−c-kit^+sca-1^+Lin^− (CD34^−KSL) cells were collected into IMDM (Life Technologies) + 10% FBS + 1% penicillin–streptomycin.
(§2) CFC assays (colony-forming unit-granulocyte monocyte), burst-forming unit-erythroid, and CFU-GEMM were performed using MethoCult GF M3434 (Stemcell Technologies)[6]. For all in vitro assays, BM CD34^−KSL cells, KSL cells, and Lin^− cells were cultured in TSF media (IMDM, 10% FBS, 1% pen-strep, 20 ng/mL recombinant mouse TPO, 125 ng/mL recombinant mouse SCF, 50 ng/mL recombinant mouse Flt3 ligand). Recombinant mouse SCF, Flt3 ligand, and TPO were purchased from R&D Systems. For competitive repopulation assays, BM cells were isolated from donor 10–12-week-old female CD45.2^+ mice. Recipient 10-week-old female CD45.1^+ B6.SJL mice were irradiated with 950 cGy TBI using a Cs137 irradiator and donor BM cells were administered via tail vein injection along with a competing dose of 1 × 10^5 non-irradiated host BM cells. Multilineage donor hematopoietic cell engraftment was measured in the PB by flow cytometry.

p-PAK1 in BM KSL cells = assay: p-PAK1 phospho-flow cytometry of BM KSL cells; assay type: cell-based, mouse
Procedure: Intracellular flow cytometric analysis was performed on irradiated (300 cGy) or non-irradiated, sorted KSL cells after treatment with 1 μg/mL DJ001 or control (equal volumes of DMSO) for 24 h. At 24 h after irradiation, cells were fixed with 4% PFA for 10 min, followed by permeabilization using 0.25% saponin in PBS. Cells were washed again and stained with antibody at the recommended concentrations for 30 min at RT. Intracellular antibodies and phospho-flow antibodies used were as follows: FITC-conjugated anti-BCL-XL (Abcam, #26148, 1:100), active RAC1-GTP antibody (NewEast Biosciences, #26903, 1:100) and anti-PAK1 (phospho S144) + PAK2 (phospho S141) + PAK3 (phospho S154) antibody (Abcam, #40795, 1:100), and FITC-conjugated goat anti-rabbit IgG H&L (Abcam, #97050, 1:200).

BM KSL cells = assay: CFC assay after lentiviral shRac1 or shBcl2l1 silencing and 300 cGy; assay type: cell-based, mouse; conditions: for Figure 3i: BFU-E / Figure 3i: CFU-GM / Figure 3i: GEMM: 300 cGy, replicates
Procedure: Rac1 CDS-targeting- and Bcl2l1 CDS-targeting shRNA in lentiviral plasmid (TRCN0000310888 and TRCN0000004685) and control shRNA (SHC216V) were purchased from Sigma Aldrich. […]. Viral particles were collected after 24 h and 48 h. […] Infected cells were collected the next day and irradiated with 300 cGy followed by treatment with or without 1 μg/mL DJ001, prior to CFC assay.
as §2

T6 sequence (P51452 whole entry, species assumed): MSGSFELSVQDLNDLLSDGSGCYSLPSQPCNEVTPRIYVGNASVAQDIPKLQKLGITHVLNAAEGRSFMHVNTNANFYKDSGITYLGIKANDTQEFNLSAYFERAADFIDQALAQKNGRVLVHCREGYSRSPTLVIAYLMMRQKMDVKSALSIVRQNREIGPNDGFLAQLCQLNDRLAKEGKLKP
T5 sequence (Q9UII6 whole entry, species assumed): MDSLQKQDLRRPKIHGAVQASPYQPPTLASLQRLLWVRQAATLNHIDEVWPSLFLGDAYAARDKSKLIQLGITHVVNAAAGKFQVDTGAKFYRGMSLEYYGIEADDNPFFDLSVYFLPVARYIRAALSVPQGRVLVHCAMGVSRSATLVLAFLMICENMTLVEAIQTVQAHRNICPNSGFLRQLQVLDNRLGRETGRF
T4 sequence (Q06124 whole entry, species assumed): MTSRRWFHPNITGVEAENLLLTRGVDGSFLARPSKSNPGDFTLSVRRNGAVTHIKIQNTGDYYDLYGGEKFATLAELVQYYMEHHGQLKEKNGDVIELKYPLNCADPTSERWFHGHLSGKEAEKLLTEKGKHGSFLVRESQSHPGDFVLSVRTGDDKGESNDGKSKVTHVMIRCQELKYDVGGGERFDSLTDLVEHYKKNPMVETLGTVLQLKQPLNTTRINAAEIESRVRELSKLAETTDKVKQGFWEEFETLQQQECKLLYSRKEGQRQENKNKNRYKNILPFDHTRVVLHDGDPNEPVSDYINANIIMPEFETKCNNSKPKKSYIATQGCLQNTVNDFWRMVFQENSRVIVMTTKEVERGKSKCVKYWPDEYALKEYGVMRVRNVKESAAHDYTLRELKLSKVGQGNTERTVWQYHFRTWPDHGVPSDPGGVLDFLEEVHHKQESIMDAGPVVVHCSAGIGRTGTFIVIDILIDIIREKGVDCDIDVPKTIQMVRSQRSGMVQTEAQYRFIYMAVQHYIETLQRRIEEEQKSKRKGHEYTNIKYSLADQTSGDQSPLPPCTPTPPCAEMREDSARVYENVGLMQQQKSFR
T1 sequence (P08575 26-1306, species assumed): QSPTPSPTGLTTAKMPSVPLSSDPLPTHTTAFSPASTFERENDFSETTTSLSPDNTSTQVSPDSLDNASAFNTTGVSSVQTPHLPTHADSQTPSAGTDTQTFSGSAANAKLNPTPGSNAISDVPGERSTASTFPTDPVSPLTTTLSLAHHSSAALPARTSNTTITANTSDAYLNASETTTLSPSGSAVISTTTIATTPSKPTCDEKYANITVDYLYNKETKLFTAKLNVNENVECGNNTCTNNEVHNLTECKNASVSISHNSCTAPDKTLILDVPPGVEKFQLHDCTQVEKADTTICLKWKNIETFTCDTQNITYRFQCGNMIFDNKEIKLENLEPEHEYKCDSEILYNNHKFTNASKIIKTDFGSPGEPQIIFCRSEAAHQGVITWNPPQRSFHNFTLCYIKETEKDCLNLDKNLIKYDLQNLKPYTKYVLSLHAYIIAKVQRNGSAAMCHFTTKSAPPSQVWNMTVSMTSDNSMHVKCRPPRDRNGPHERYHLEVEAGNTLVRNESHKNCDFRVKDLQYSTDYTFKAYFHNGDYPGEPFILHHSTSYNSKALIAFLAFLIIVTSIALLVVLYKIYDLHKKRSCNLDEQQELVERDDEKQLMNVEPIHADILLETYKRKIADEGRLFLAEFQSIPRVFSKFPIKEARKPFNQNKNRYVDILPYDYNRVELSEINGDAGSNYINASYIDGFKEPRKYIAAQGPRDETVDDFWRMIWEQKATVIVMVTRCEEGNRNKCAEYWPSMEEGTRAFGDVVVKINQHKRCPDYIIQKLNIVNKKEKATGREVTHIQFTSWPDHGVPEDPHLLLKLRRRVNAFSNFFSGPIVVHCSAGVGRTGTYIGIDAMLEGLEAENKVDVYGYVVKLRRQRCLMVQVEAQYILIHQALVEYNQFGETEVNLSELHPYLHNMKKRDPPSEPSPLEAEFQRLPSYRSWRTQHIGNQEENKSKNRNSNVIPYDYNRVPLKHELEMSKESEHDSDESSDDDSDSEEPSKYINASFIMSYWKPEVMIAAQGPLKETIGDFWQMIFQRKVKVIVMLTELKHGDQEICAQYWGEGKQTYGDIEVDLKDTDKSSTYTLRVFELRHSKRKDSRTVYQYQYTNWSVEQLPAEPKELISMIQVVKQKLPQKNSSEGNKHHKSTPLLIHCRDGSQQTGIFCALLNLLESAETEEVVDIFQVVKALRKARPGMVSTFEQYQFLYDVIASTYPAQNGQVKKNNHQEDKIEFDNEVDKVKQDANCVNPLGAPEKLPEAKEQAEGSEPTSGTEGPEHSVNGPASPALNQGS
T3 sequence (P29074 whole entry): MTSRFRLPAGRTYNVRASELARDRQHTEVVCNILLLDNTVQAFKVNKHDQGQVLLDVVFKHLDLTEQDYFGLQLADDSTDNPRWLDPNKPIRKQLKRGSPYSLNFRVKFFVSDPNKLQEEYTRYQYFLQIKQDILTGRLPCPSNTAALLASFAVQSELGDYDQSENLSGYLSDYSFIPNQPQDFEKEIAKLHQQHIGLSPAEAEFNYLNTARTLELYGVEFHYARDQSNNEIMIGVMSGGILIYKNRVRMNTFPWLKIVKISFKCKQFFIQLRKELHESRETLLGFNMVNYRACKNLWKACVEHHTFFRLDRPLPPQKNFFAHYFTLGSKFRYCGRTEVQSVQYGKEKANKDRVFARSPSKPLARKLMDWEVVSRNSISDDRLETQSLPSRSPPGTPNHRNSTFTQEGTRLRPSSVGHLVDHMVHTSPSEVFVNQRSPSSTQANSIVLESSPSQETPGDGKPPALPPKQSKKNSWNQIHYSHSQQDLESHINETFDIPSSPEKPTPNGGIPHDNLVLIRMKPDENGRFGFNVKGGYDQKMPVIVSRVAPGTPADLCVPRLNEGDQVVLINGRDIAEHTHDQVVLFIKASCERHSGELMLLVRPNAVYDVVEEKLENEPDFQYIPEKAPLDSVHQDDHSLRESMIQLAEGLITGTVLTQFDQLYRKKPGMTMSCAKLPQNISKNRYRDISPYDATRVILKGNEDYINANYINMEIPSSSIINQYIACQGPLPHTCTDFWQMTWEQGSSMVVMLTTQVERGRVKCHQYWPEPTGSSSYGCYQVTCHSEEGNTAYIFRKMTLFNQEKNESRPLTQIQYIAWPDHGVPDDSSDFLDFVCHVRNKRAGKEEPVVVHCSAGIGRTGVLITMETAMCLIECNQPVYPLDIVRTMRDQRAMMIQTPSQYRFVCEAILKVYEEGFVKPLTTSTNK
T2 sequence (P03772 whole entry): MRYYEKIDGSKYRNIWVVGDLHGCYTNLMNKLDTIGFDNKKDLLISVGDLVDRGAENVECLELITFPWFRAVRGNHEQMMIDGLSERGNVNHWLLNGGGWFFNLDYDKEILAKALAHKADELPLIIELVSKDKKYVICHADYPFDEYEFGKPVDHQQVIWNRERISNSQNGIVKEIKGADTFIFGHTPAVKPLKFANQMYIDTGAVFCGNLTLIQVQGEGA

O=C(/C=C\Nc1cccc([N+](=O)[O-])c1)c1ccccc1 [DJ001, (Z)-3-((3-nitrophenyl)amino)-1-phenylprop-2-en-1-one] was tested, and the “Supplementary Figure 1: CD45 activity” value ([1]; 0.27 μg/mL DJ001) was 91 and 86 and 84, the “Supplementary Figure 1: CD45 activity” value ([1]; 2.7 μg/mL DJ001) was 71 and 85 and 86 and the “Supplementary Figure 1: Lambda PP activity” value ([2]; 0.27 μg/mL DJ001) was 126 and 132 and 133. The “Supplementary Figure 1: Lambda PP activity” value ([2]; 2.7 μg/mL DJ001) was 118 and 122 and 125, the “Supplementary Figure 1: PPA activity” value ([3]; 2.7 μg/mL DJ001) was 101 and 93 and 96 and the “Supplementary Figure 1: PPA activity” value ([3]; 0.27 g/mL DJ001) was 96 and 90 and 101. For the same compound, the “Supplementary Figure 1: PTP MEG1 activity” value ([4]; 2.7 μg/mL DJ001) was 100 and 92 and 105, the “Supplementary Figure 1: PTP MEG1 activity” value ([4]; 0.27 g/mL DJ001) was 103 and 114 and 105 and the “Supplementary Figure 1: SHP-2 activity” value ([5]; 0.27 μg/mL DJ001) was 99 and 96 and 102. The “Supplementary Figure 1: SHP-2 activity” value ([5]; 2.7 μg/mL DJ001) was 87 and 90 and 94, the “Supplementary Figure 1: TMDP activity” value ([6]; 2.7 μg/mL DJ001) was 101 and the “Supplementary Figure 1: TMDP activity” value ([6]; 0.27 g/mL DJ001) was 108 and 103 (2×). The “Supplementary Figure 1: VHR activity” value ([7]; 2.7 μg/mL DJ001) was 94 and 84 and 95, the “Supplementary Figure 1: VHR activity” value ([7]; 0.27 g/mL DJ001) was 100 and 101 and 98 and the “Supplementary Figure 3a (center panel): 7 day culture of BM CD34−KSL cells” value (shortened to “Supplementary Figure 3a (center panel)”) (BM CD34−KSL HSCs; 10 ng/mL) was 8.03 and 6.26 and 7.07 and 7.49. For the same compound, the “Supplementary Figure 3a (left panel): 7 day culture of BM CD34−KSL cells” value (“Supplementary Figure 3a (left panel)” below) (BM CD34−KSL HSCs; 10 ng/mL) was 107000 and 154000 and 141000 and 135000, the “Supplementary Figure 3a (right panel): 7 day culture of BM CD34−KSL cells” value (“Supplementary Figure 3a (right panel)” below) (BM CD34−KSL HSCs; 10 ng/mL) was 8589 and 9633 and 9964 and 10109 and the “Supplementary Figure 3a (center panel)” value (BM CD34−KSL HSCs; 100 ng/mL) was 15.07 and 8.84 and 9.18 and 11.37. For the same compound, the “Supplementary Figure 3a (left panel)” value (BM CD34−KSL HSCs; 100 ng/mL) was 127000 and 142000 and 174000 and 219000, the “Supplementary Figure 3a (right panel)” value (BM CD34−KSL HSCs; 100 ng/mL) was 19062 and 12549 and 15920 and 24836 and the “Supplementary Figure 3a (center panel)” value (BM CD34−KSL HSCs; 1000 ng/mL) was 16.07 and 11.49 and 11 and 12.87. The “Supplementary Figure 3a (left panel)” value (BM CD34−KSL HSCs; 1000 ng/mL) was 131000 and 209000 and 128000 and 136000, the “Supplementary Figure 3a (right panel)” value (BM CD34−KSL HSCs; 1000 ng/mL) was 21058 and 24017 and 14076 and 17507 and the “percentages and numbers of BM KSL cells in culture vs control” value (BM CD34−KSL HSCs; 10–1,000 ng/mL DJ001, 7 days) was “increased the percentages and numbers of BM KSL cells”. For the same compound, the “phosphorylation of PAK1” value (p-PAK1 in BM KSL cells; BM KSL cells, 1 μg/mL DJ001) was “increased phosphorylation”, the “Figure 3d: p-PAK1 in BM KSL cells” value (p-PAK1 in BM KSL cells; individual replicates) was 50.24 and 54.07 and 49.55 and 58.02 and 54.95 and the “DJ001-mediated recovery of hematopoietic progenitor cells with silencing of Rac1 or Bcl2l1” value (BM KSL cells; BM KSL cells, 48 h following 300 cGy) was “blocked DJ001-mediated recovery of hematopoietic progenitor cells”. For the same compound, the “Figure 3i: BFU-E” value (BM KSL cells; shBcl-xL) was 1, the “Figure 3i: CFU-GM” value (BM KSL cells; shBcl-xL) was 9 and 11 and 10 and the “Figure 3i: GEMM” value (BM KSL cells; shBcl-xL) was 2 and 1 (2×). For the same compound, the “Figure 3i: BFU-E” value (BM KSL cells; shCtrl) was 2 and 3 (4×) and 4 (2×) and 5 (2×), the “Figure 3i: CFU-GM” value (BM KSL cells; shCtrl) was 26 (3×) and 30 and 29 (2×) and 20 and 31 and 28 and the “Figure 3i: GEMM” value (BM KSL cells; shCtrl) was 5 (3×) and 13 and 8 (2×) and 7 and 10 and 9. For the same compound, the “Figure 3i: BFU-E” value (BM KSL cells; shRac1) was 1 (2×) and 0, the “Figure 3i: CFU-GM” value (BM KSL cells; shRac1) was 12 and 10 (2×) and the “Figure 3i: GEMM” value (BM KSL cells; shRac1) was 2 and 0 and 3.
